Patent US11841360B1, “Systems, devices, and methods for ex vivo assessment of responses to multiple therapeutic agents” (Oregon Health & Science University, priority 2018, dated 2023)

How the values were obtained:
JIMT1 = conditions: HER2+ basal-like JIMT1, with HGF; cited from earlier work
BT474 tumors = conditions: HER2+ luminal-like BT474 tumors, with NRG1b; cited from earlier work
MMTV-PyMT tumors = assay: Multiplex nanodose assay (MNA): implantable microdevice in tumor, CC3/MHC-I IHC and multiplex IHC adjacent to the drug-releasing well; assay type: in vivo, mouse; conditions: mIHC, 3 days
Description: Multiplex nanodose assay (MNA) system and translation to breast cancer patients: The illustrated microdevice (FIG. 6A) is a non-toxic 4×0.8 mm resin cylinder with eighteen 200 μm deep reservoirs, that are packed with active compounds (drugs or drug combinations) in solid form. The device is implanted and stays in the tumor tissue for up to 8 days; after which the tumor/tissue surrounding the device is harvested with the device in place and formalin fixed and paraffin embedded (FFPE). The tumor tissue is analyzed adjacent to each drug well using multiplex IHC (mIHC) with antibodies that interrogate one or more of cleaved caspase activity, epithelial, mesenchymal, endothelial status, as well as immune composition and activity. […] Signal of individual markers are merged and the overlap is quantified.
(FIG. 8A). […] Mean intensity value of the CC3 signal was measured adjacent to the drug releasing reservoir and was normalized to control PEG only loaded reservoir. […] (n=3 regions of interest in one sample for (FIG. 8F) and n=3 drug loaded wells for (FIG. 8D); significance was calculated by a two-tailed t-test with equal variance. Of note, early microdevice studies validated each well to be a biological replicate due to heterogeneous nature of tumors in general (Jonas et al., Sci Transl. Med. 7, 284ra59, 2015). Microfluidic ex vivo platform maintains the viability of the primary mouse tumor tissue. […]

[1] = test system: immunocompetent mouse models of triple negative and HER2+ breast cancer with late stage spontaneously developing tumors; assay: MNA small scale screening using 5 FDA approved drugs, CC3 and multiplex IHC; assay type: in vivo; conditions: for infiltration of cytotoxic neutrophils: mIHC close to the drug releasing well
Description: Panobinostat induces immunogenic cell death associated with Neuropilin-1 neutrophil infiltration: We have developed a novel pre-clinical model system—the Multiplex Nanodose Assay (MNA)—that enables a comprehensive single cell analysis of drug-mediated effects in complex tumor microenvironment (TME). The MNA is based on a recently developed implantable microdevice that performs drug sensitivity testing of multiple drugs at once inside a living tissue (FIGS. 18A and 18B) (Jonas et al., Sci Transl Med 7:284ra57, 2015; Watson et al., Cell Syst 1-14, 2018, doi.org/10.1016/j.cels.2018.02.001). The drugs are passively released into distinct tumor regions and we analyze the drug mediated effects in close proximity to the drug releasing well by multiplex immunohistochemistry (mIHC) (FIG. 18C). This is a sequential IHC staining on a single formalin fixed paraffin embedded (FFPE) tissue for multiparametric characterization of single cells similar to flow cytometry, except that the cells are studies in their natural intact environment (Tsujikawa et al., Cell Rep 19:203-17, 2017; Chang et al., Proc Annu Int Conf IEEE Eng Med Biol Soc EMBS. 4046-9, 2017). The spatial relation of the functionally different populations facilitates identification of the drug-mediated cellular mechanisms. This knowledge can be then translated to rapidly identify rational combination treatment strategies.
With the MNA, we have performed a small scale screening using 5 FDA approved drugs in immunocompetent mouse models of triple negative and HER2+ breast cancer with late stage spontaneously developing tumors. […]
Since panobinostat-mediated effects in vivo are likely linked to effective anti-tumor immunity and increased response to PD-1 blockade therapy, we took a closer look at the immediate interaction between dying tumor cells and tumor microenvironment. […] In the multiplex readout panel, we incorporated stains that interrogate basic drug-sensitivity testing, epithelial, mesenchymal, endothelial compartment, but mainly multiple markers of immune composition and activity. […]

Row | SMILES | apoptosis under TKI in presence of hepatocyte growth factor (HGF) (JIMT1) | proliferation under TKI in presence of neuregulin-1b (NRG1b) (BT474 tumors) | infiltrate of cytotoxic neutrophils at the reservoir (MMTV-PyMT tumors) | share of Neuropilin-1 positive cells that are cytotoxic neutrophils (Myeloperoxidase staining) ([1]; at the panobinostat well) [%] | infiltration of cytotoxic neutrophils [1] | infiltration of cytotoxic neutrophils ([1]; listed as Panobinostat)
1 | CCOc1cc2ncc(C#N)c(Nc3ccc(OCc4ccccn4)c(Cl)c3)c2cc1NC(=O)/C=C/CN(C)C [Neratinib] | decreasing apoptosis to normal levels | restores the proliferation | – | – | – | –
2 | Cc1[nH]c2ccccc2c1CCNCc1ccc(/C=C/C(=O)NO)cc1 [panobinostat] | – | – | heavy infiltrate of cytotoxic neutrophils | ~85 | increased infiltration of cytotoxic neutrophils | robust increase of neutrophils
3 | CS(=O)(=O)CCNCc1ccc(-c2ccc3ncnc(Nc4ccc(OCc5cccc(F)c5)c(Cl)c4)c3c2)o1 [Lapatinib] | decreasing apoptosis to normal levels | restores the proliferation | – | – | – | –
